The values below are quoted from earlier work in patent US12616206B2, “Graphene-silver nanocomposites and uses for same as an antimicrobial composition” (ZENTEK LTD., priority 2020, dated 2026).

Among the test systems are Candida albicans; Vibrio cholerae; Salmonella typhi; Streptococcus pyogenes.
What all share (conditions): literature value, source by footnote a-g

Molecules are shown by their SMILES.

As to `O=[N+]([O-])[O-].[Ag+]` [AgNO3, silver nitrate], the MIC in the data set with Candida albicans is given as 4.9 ^f μg/mL; in the data set with Vibrio cholerae it was 70 ^c μg/mL; in the data set on Salmonella typhi, 110 ^c μg/mL; in the data set on Streptococcus pyogenes, 80 ^c μg/mL.
